Measured values reported in patent US20250040554A1, “NEW USES OF PHENMEDIPHAM AND HERBICIDAL COMBINATIONS COMPRISING PHENMEDIPHAM” (BAYER AKTIENGESELLSCHAFT, priority 2021, published 2025).

Key:
Type in all cases: in vivo
corn (Zea mays, ZEAMX) = test: Field selectivity trial corn; conditions: 35 DAA
Source text: (§1) The respective (combinations of) materials were applied to weed plants in the greenhouse or in the field at the respective growth stage indicated hereinafter for the different weed species mentioned below. The respective (combinations of) active ingredients were also applied to corn, cotton and soybean crop plants, and the selectivity (damage) in these crop plants rated (assessed).
(§2) Visual scoring of the damage to the trial plants took place after the time mentioned in the respective Table—indicated in number of Days After Application (DAA). Damage and development of all above-ground parts of the respective plants was recorded. Visual rating was done on a percentage scale in relation to the untreated control (100%=all plants dead; 50%=green plant biomass reduced by 50%, and 0%=no discernible difference=like control plot).
(§3) The trials in the greenhouse were sprayed with an application volume of 300 L/ha with an automated track sprayer. The plots in the field were sprayed with an application volume of 140 L/ha with a hand held spray boom.
Phenmedipham and combinations of phenmedipham and mesotrione were applied at varying application rates (Dose Rate) to the crop plants of non-traited soybean (Glycine max, GLXMA) and corn (Zea mays, ZEAMX). The results are shown in Table 5 as the % damage when assessed 35 days after application (DAA), respectively.
In all the selectivity trials of Table 5 the adjuvant Mero® (rapeseed oil methyl ester) was added to the respective spray mixture in an amount corresponding to 1 L/ha for PMP, 1 L/ha for MST, and 2 L/ha for mixtures of PMP+MST.
The herbicidal effects observed for the herbicide(s) are indicated in % activity against the respective weed. The % damage (injury) indicated refers to the maximum damage observed.

[1] = system: EPHHL=Euphorbia heterophylla; test: Weed control field trial EPHHL
Source text: as §1, §2, §3
(§4) wherein • A, B=respective value in percent of active ingredient A at a dose rate of a g/ha, ingredient B at a dose rate of b g/ha • E^C=Expected value according to Colby (S. R. Colby; Weeds 15 (1967), 20-22) in % at a dose rate of a+b, each in g/ha • Δ=Difference (in %) between measured value E and expected value E^C (%) (measured value minus expected value)
(§5) The growth stages of the different weed species are indicated according to the BBCH monograph “Growth stages of mono- and dicotyledonous plants”, 2nd edition, 2001, ed. Uwe Meier, Federal Biological Research Centre for Agriculture and Forestry (Biologische Bundesanstalt für Land und Forstwirtschaft).
(§6) After the harmful plants had emerged, they were treated, at the respective growth stage indicated, with the respective materials as indicated at a water application rate of 140 L/ha.
(§7) After the treatment (21 or 35 days after application of the respective material), the herbicidal activity of respective material was scored visually at the same time by comparing the differently treated plots with the untreated control plots. The score figures of the different plots were averaged.
(§8) The dose rates of herbicidal ingredients used in each case are indicated for the respective active ingredient and refer to the amount of active ingredient per hectare (g/ha).
(§9) The weed control activity of different (combinations of) herbicidal active ingredients was investigated in field trials for the following weed species: • AMAVI=Amaranthus viridis • IPOAO=Ipomoea aristolochiaefolia • EPHHL=Euphorbia heterophylla • BIDPI=Bidens pilosa • BRADC=Brachiaria decumbens • ELEIN=Eleusine indica • CCHEC=Cenchrus echinatus
(§10) The growth stage of AMAVI was BBCH 13, the growth stage of IPOAO was BBCH 15, the growth stage of EPHHL was BBCH 13, the growth stage of BIDPI was BBCH 14, the growth stage of BRADC was BBCH 23, the growth stage of ELEIN was BBCH 11 and the growth stage of CCHEC was BBCH 12 at the time of application of the respective material.
(§11) Phenmedipham and Mesotrione were applied at varying application rates (Dose Rate) to the different species of weed plants. The results are shown in Tables 3a to 3e as the % control when assessed 21 and 35 days after application (DAA), respectively.
(§12) In all the trials of Tables 3a to 3e Mero® (rapeseed oil methyl ester) was added to the respective spray mixture in an amount corresponding to 1 L/ha for PMP, 1 L/ha for MST, and 2 L/ha for mixtures of PMP+MST.

STEME=Stellaria media = test: Greenhouse weed control trial STEME; conditions: 25 DAA
Source text: as §1, §2, §3
In greenhouse selectivity trials and trials herbicidal activity trials against weed plants were investigated in post-emergence application of the respective material(s).
Herbicidal activity against different weeds (undesired plants) was calculated as follows.
as §4
• measured value E is greater than E^C:->synergism (+Δ) • measured value E is equal to E^C:->additive effect • measured value E is smaller than E^C:->antagonism (−Δ)
The weed control activity of different (combinations of) materials was investigated in greenhouse trials for the following weed species: • STEME=Stellaria media • ECHCG=Echinochloa crus-galli • BROTE=Bromus tectorum
Phenmedipham amd Mesotrione were applied at varying application rates (Dose Rate) to the weed plant species STEME, ECHCG and BROTE. The results are shown in Tables 2a to 2c as the % control when assessed 25 days after application (25 DAA).
In all the trials of Table Tables 2a to 2c Mero® (rapeseed oil methyl ester) was added to the respective spray mixture in an amount corresponding to 1 L/ha for PMP, 1 L/ha for MST, and 2 L/ha for mixtures of PMP+MST.

[2] = system: BRADC=Brachiaria decumbens; test: Weed control field trial BRADC
Source text: as §1, §2, §3, §4, §5, §6, §7, §8, §9, §10, §11, §12

[3] = system: IPOAO=Ipomoea aristolochiaefolia; test: Weed control field trial IPOAO
Source text: as §1, §2, §3, §4, §5, §6, §7, §8, §9, §10, §11, §12

AMAVI=Amaranthus viridis = test: Weed control field trial AMAVI
Source text: as §1, §2, §3, §4, §5, §6, §7, §8, §9, §10, §11, §12

CS(=O)(=O)c1ccc(C(=O)C2C(=O)CCCC2=O)c([N+](=O)[O-])c1 [MST, 2-[4-(methylsulfonyl)-2-nitrobenzoyl]cyclohexane-1,3-dione]
maximum damage ZEAMX (corn (Zea mays, ZEAMX); 25 g/ha): 0% | maximum damage ZEAMX (corn (Zea mays, ZEAMX); 50 g/ha): 0% | % control EPHHL ([1]; 25 g/ha, 21 DAA): 0% | % control EPHHL ([1]; 25 g/ha, 35 DAA): 0% | % control EPHHL ([1]; 50 g/ha, 21 DAA): 17% | % control EPHHL ([1]; 50 g/ha, 35 DAA): 0% | % control STEME (STEME=Stellaria media; 12.5 g/ha): 89% | % control STEME (STEME=Stellaria media; 25 g/ha): 99% | % control STEME (STEME=Stellaria media; 50 g/ha): 99% | % control STEME (STEME=Stellaria media; 75 g/ha): 99% | % control BRADC ([2]; 25 g/ha, 21 DAA): 0% | % control BRADC ([2]; 25 g/ha, 35 DAA): 0% | % control BRADC ([2]; 50 g/ha, 21 DAA): 17% | % control BRADC ([2]; 50 g/ha, 35 DAA): 13% | % control IPOAO ([3]; 25 g/ha, 21 DAA): 0% | % control IPOAO ([3]; 25 g/ha, 35 DAA): 0% | % control IPOAO ([3]; 50 g/ha, 21 DAA): 17% | % control IPOAO ([3]; 50 g/ha, 35 DAA): 0% | % control AMAVI (AMAVI=Amaranthus viridis; 25 g/ha, 21 DAA): 10% | % control AMAVI (AMAVI=Amaranthus viridis; 25 g/ha, 35 DAA): 10% | % control AMAVI (AMAVI=Amaranthus viridis; 50 g/ha, 21 DAA): 10% | % control AMAVI (AMAVI=Amaranthus viridis; 50 g/ha, 35 DAA): 10%

COC(=O)Nc1cccc(OC(=O)Nc2cccc(C)c2)c1 [PMP, 3-[(methoxyformyl)amino]phenyl (3-methylphenyl)carbamate]
maximum damage ZEAMX (corn (Zea mays, ZEAMX); 75 g/ha): 6% | maximum damage ZEAMX (corn (Zea mays, ZEAMX); 125 g/ha): 6% | maximum damage ZEAMX (corn (Zea mays, ZEAMX); 250 g/ha): 6% | % control EPHHL ([1]; 75 g/ha, 21 DAA): 0% | % control EPHHL ([1]; 75 g/ha, 35 DAA): 0% | % control EPHHL ([1]; 100 g/ha, 21 DAA): 0% | % control EPHHL ([1]; 100 g/ha, 35 DAA): 0% | % control EPHHL ([1]; 125 g/ha, 21 DAA): 0% | % control EPHHL ([1]; 125 g/ha, 35 DAA): 0% | % control EPHHL ([1]; 250 g/ha, 21 DAA): 0% | % control EPHHL ([1]; 250 g/ha, 35 DAA): 0% | % control STEME (STEME=Stellaria media; 12.5 g/ha): 0% | % control STEME (STEME=Stellaria media; 25 g/ha): 0% | % control STEME (STEME=Stellaria media; 50 g/ha): 0% | % control STEME (STEME=Stellaria media; 75 g/ha): 0% | % control STEME (STEME=Stellaria media; 100 g/ha): 0% | % control STEME (STEME=Stellaria media; 125 g/ha): 25% | % control STEME (STEME=Stellaria media; 300 g/ha): 77% | % control BRADC ([2]; 75 g/ha, 21 DAA): 0% | % control BRADC ([2]; 75 g/ha, 35 DAA): 0% | % control BRADC ([2]; 100 g/ha, 21 DAA): 0% | % control BRADC ([2]; 100 g/ha, 35 DAA): 0% | % control BRADC ([2]; 125 g/ha, 21 DAA): 0% | % control BRADC ([2]; 125 g/ha, 35 DAA): 0% | % control BRADC ([2]; 250 g/ha, 21 DAA): 0% | % control BRADC ([2]; 250 g/ha, 35 DAA): 0% | % control IPOAO ([3]; 75 g/ha, 21 DAA): 0% | % control IPOAO ([3]; 75 g/ha, 35 DAA): 0% | % control IPOAO ([3]; 100 g/ha, 21 DAA): 0% | % control IPOAO ([3]; 100 g/ha, 35 DAA): 0% | % control IPOAO ([3]; 125 g/ha, 21 DAA): 0% | % control IPOAO ([3]; 125 g/ha, 35 DAA): 0% | % control IPOAO ([3]; 250 g/ha, 21 DAA): 0% | % control IPOAO ([3]; 250 g/ha, 35 DAA): 0% | % control AMAVI (AMAVI=Amaranthus viridis; 75 g/ha, 21 DAA): 0% | % control AMAVI (AMAVI=Amaranthus viridis; 75 g/ha, 35 DAA): 0% | % control AMAVI (AMAVI=Amaranthus viridis; 100 g/ha, 21 DAA): 0% | % control AMAVI (AMAVI=Amaranthus viridis; 100 g/ha, 35 DAA): 0% | % control AMAVI (AMAVI=Amaranthus viridis; 125 g/ha, 21 DAA): 0% | % control AMAVI (AMAVI=Amaranthus viridis; 125 g/ha, 35 DAA): 0% | % control AMAVI (AMAVI=Amaranthus viridis; 250 g/ha, 21 DAA): 0% | % control AMAVI (AMAVI=Amaranthus viridis; 250 g/ha, 35 DAA): 0%
